In US12624018B1, “Inhibitors of RIPK2 and medical uses thereof” (Odyssey Therapeutics, Inc., priority 2022, dated 2026):

Each compound was assayed against T1, RIPK2 enzyme (Homo sapiens, UniProt O43353) (assay: RIPK2 inhibition (ADP-Glo Kinase Assay)). Details: RIPK2 5 nM, ATP 150 μM, MBP substrate, read-out: RIPK2 IC50.
T1 construct: purchased Carna 09-128
Assay type: biochemical
Summary of the method: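 Swine MBP substrate; compound and 5 nM RIPK2 first mixed for 30 min at room temperature; buffer pH 7.5 HEPES 50 mM with 10 mM MgCl2, 2 mM DTT, 1 mM EGTA, Brij-35, BSA.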

T1 sequence (O43353 1-299 limits assumed): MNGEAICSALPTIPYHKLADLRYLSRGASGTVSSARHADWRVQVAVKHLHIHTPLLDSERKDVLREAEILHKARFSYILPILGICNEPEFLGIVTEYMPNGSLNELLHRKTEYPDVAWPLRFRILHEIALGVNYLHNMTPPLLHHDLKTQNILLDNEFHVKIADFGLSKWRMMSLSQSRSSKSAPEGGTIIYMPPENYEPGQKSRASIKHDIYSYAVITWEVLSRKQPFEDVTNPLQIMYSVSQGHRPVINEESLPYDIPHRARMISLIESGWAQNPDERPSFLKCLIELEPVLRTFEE

Row | Compound | IC50 [nM]
1 | CC(C)(C)n1cc(NC(=O)Cc2ccc(Oc3ccnc4ccc(S(C)(=N)=O)cc34)c(Cl)c2)cn1 (stereo not shown) [Compound 90, N-(1-(tert-butyl)-1H-pyrazol-4-yl)-2-(3-chloro-4-((6-(S-methylsulfonimidoyl)quinolin-4-yl)oxy)phenyl)acetamide] | 2.9
2 | [2H]C([2H])([2H])c1cc(CC(=O)Nc2cnn(C(C)(C)C)c2)ccc1Oc1ccnc2ccc(S(C)(=O)=O)cc12 [Compound 93, N-(1-(tert-butyl)-1H-pyrazol-4-yl)-2-(3-(methyl-d3)-4-((6-(methylsulfonyl)quinolin-4-yl)oxy)phenyl)acetamide] | < 2.5
3 | CCN1CCC(Oc2ccc3nccc(Oc4ccc(CC(=O)Nc5cnn(C(C)(C)C)c5)cc4C)c3c2)CC1 [Compound 94, N-(1-(tert-butyl)-1H-pyrazol-4-yl)-2-(4-((6-((1-ethylpiperidin-4-yl)oxy)quinolin-4-yl)oxy)-3-methylphenyl) acetamide] | < 2.5
4 | Cc1cc(CC(=O)Nc2cnn(C(C)(C)C)c2)ccc1Oc1ccnc2ccc(OC3CCN(C4CC4)CC3)cc12 [Compound 95, N-(1-(tert-butyl)-1H-pyrazol-4-yl)-2-(4-((6-((1-cyclopropyl-piperidin-4-yl)oxy)quinolin-4-yl)oxy)-3-methylphenyl) acetamide] | < 2.5
5 | Cc1cc(CC(=O)Nc2cnn(C(C)(C)C)c2)ccc1Oc1ccnc2ccc(OC3CCN(C4COC4)CC3)cc12 [Compound 96, N-(1-(tert-butyl)-1H-pyrazol-4-yl)-2-(3-methyl-4-((6-((1-(oxetan-3-yl)piperidin-4-yl)oxy)quinolin-4-yl)oxy)phenyl) acetamide] | < 2.5
6 | Cc1cc(CC(=O)Nc2cnn(C(C)(C)C)c2)ccc1Oc1ccnc2ccc(S(=O)(=O)C3CCN(C)CC3)cc12 [Compound 97, N-(1-(tert-butyl)-1H-pyrazol-4-yl)-2-(3-methyl-4-((6-((1-methylpiperidin-4-yl)sulfonyl)quinolin-4-yl)oxy)phenyl)acetamide] | < 2.5
7 | Cc1cc(CC(=O)Nc2cnn(C(C)(C)C)c2)ccc1Oc1ccnc2ccc(S(=O)(=O)C3CCOCC3)cc12 [Compound 98, N-(1-(tert-butyl)-1H-pyrazol-4-yl)-2-(3-methyl-4-((6-((tetrahydro-2H-pyran-4-yl)sulfonyl)quinolin-4-yl)oxy)phenyl)acetamide] | < 2.5
8 | Cc1cc(CC(=O)Nc2cnn(C(C)(C)C)c2)ccc1Oc1ccnc2ccc(S(=O)(=O)C3CC3)cc12 [Compound 100, N-(1-(tert-butyl)-1H-pyrazol-4-yl)-2-(4-((6-(cyclopropylsulfonyl)quinolin-4-yl)oxy)-3-methylphenyl)acetamide] | < 2.5
9 | Cc1cc(CC(=O)Nc2cnn(C(C)(C)C)c2)ccc1Oc1ccnc2ccc(S(=O)(=O)C3COC3)cc12 [Compound 101, N-(1-(tert-butyl)-1H-pyrazol-4-yl)-2-(3-methyl-4-((6-(oxetan-3-ylsulfonyl)quinolin-4-yl)oxy)phenyl)acetamide] | < 2.5
10 | Cc1c(Oc2ccnc3ccc(OC4CCNCC4)cc23)ccc(CC(=O)Nc2cnn(C(C)(C)C)c2)c1F [Compound 102, N-(1-(tert-butyl)-1H-pyrazol-4-yl)-2-(2-fluoro-3-methyl-4-((6-(piperidin-4-yloxy)quinolin-4-yl)oxy)phenyl) acetamide] | < 2.5
11 | Cc1c(Oc2ccnc3ccc(OC4CCN(C)CC4)cc23)ccc(CC(=O)Nc2cnn(C(C)(C)C)c2)c1F [Compound 103, N-(1-(tert-butyl)-1H-pyrazol-4-yl)-2-(2-fluoro-3-methyl-4-((6-((1-methylpiperidin-4-yl)oxy)quinolin-4-yl)oxy)phenyl)acetamide] | < 2.5
12 | [2H]C([2H])([2H])c1cc(CC(=O)Nc2cnn(C(C)(C)C)c2)ccc1Oc1ccnc2ccc(OC3CCNCC3)cc12 [Compound 104, N-(1-(tert-butyl)-1H-pyrazol-4-yl)-2-(3-(methyl-d3)-4-((6-(piperidin-4-yloxy)quinolin-4-yl)oxy)phenyl) acetamide] | < 2.5
13 | [2H]C([2H])([2H])c1cc(CC(=O)Nc2cnn(C(C)(C)C)c2)ccc1Oc1ccnc2ccc(OC3CCN(C)CC3)cc12 [Compound 105, N-(1-(tert-butyl)-1H-pyrazol-4-yl)-2-(3-(methyl-d3)-4-((6-((1-methyl-piperidin-4-yl)oxy)quinolin-4-yl)oxy)phenyl) acetamide] | < 2.5
14 | Cc1c(Oc2ncnc3ccc(OC4CCNCC4)cc23)ccc(CC(=O)Nc2cnn(C(C)(C)C)c2)c1F [Compound 106, N-(1-(tert-butyl)-1H-pyrazol-4-yl)-2-(2-fluoro-3-methyl-4-((6-(piperidin-4-yloxy)quinazolin-4-yl)oxy)phenyl) acetamide] | < 2.5
15 | Cc1c(Oc2ncnc3ccc(OC4CCN(C)CC4)cc23)ccc(CC(=O)Nc2cnn(C(C)(C)C)c2)c1F [Compound 107, N-(1-(tert-butyl)-1H-pyrazol-4-yl)-2-(2-fluoro-3-methyl-4-((6-((1-methyl-piperidin-4-yl)oxy)quinazolin-4-yl)oxy)phenyl) acetamide] | < 2.5
16 | CCN1CCC(Oc2ccc3nccc(Oc4cnc(CC(=O)Nc5cnn(C(C)(C)C)c5)c(F)c4)c3c2)CC1 [Compound 108, N-(1-(tert-butyl)-1H-pyrazol-4-yl)-2-(5-((6-((1-ethylpiperidin-4-yl)oxy)quinolin-4-yl)oxy)-3-fluoropyridin-2-yl)acetamide] | 11.3
17 | CCN1CCC(Oc2ccc3ncnc(Oc4ccc(CC(=O)Nc5cnn(C(C)(C)C)c5)cc4C)c3c2)CC1 [Compound 109, N-(1-(tert-butyl)-1H-pyrazol-4-yl)-2-(4-((6-((1-ethyl-piperidin-4-yl)oxy)quinazolin-4-yl)oxy)-3-methylphenyl) acetamide] | 3.9
18 | Cc1cc(CC(=O)Nc2cnn(C(C)(C)C)c2)ccc1Oc1ccnc2ccc(OC3CCN(CC(F)(F)F)CC3)cc12 [Compound 110, N-(1-(tert-butyl)-1H-pyrazol-4-yl)-2-(3-methyl-4-((6-((1-(2,2,2-trifluoroethyl)piperidin-4-yl)oxy)quinolin-4-yl)oxy)phenyl) acetamide] | < 2.5
19 | Cc1cc(CC(=O)Nc2cnn(C(C)(C)C)c2)ccc1Oc1ncnc2ccc(OC3CCN(CC(F)(F)F)CC3)cc12 [Compound 111, N-(1-(tert-butyl)-1H-pyrazol-4-yl)-2-(3-methyl-4-((6-((1-(2,2,2-trifluoroethyl)piperidin-4-yl)oxy)quinazolin-4-yl)oxy)phenyl) acetamide] | 36.4
20 | CC(C)(C)n1cc(NC(=O)Cc2ncc(Oc3ncnc4ccc(OC5CCN(CC(F)(F)F)CC5)cc34)cc2F)cn1 [Compound 112, N-(1-(tert-butyl)-1H-pyrazol-4-yl)-2-(3-fluoro-5-((6-((1-(2,2,2-trifluoroethyl)piperidin-4-yl)oxy)quinazolin-4-yl)oxy)pyridin-2-yl)acetamide] | 20.8
21 | Cc1cc(CC(=O)Nc2cnn(C(C)(C)C)c2)c(F)cc1Oc1ccnc2ccc(OC3CCNCC3)cc12 [Compound 114, N-(1-(tert-butyl)-1H-pyrazol-4-yl)-2-(2-fluoro-5-methyl-4-((6-(piperidin-4-yloxy)quinolin-4-yl)oxy)phenyl) acetamide] | < 2.5
22 | Cc1cc(CC(=O)Nc2cnn(C(C)(C)C)c2)c(F)cc1Oc1ccnc2ccc(OC3CCN(C)CC3)cc12 [Compound 115, N-(1-(tert-butyl)-1H-pyrazol-4-yl)-2-(2-fluoro-5-methyl-4-((6-((1-methyl-piperidin-4-yl)oxy)quinolin-4-yl)oxy)phenyl) acetamide] | < 2.5
